Laboratory results reported in the supplement of paper PMC10627819.

Legend:
Test in all cases: fitness (endpoint OD595 vs no drug) (fraction); higher = more growth
S. aureus DSM 20231 = tested on: S. aureus DSM 20231
Method in brief: (§1)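 Each well of a 384-well plate received 30 µl of culture at OD595 0.01, or 55 µl for S. pneumoniae. TSB, LB Lennox or CY served as media at 37 °C. OD595 was taken every 30 min for 14 h and corrected by subtracting the first reading. Fitness is the optical density at stationary-phase entry divided by the robust mean of no-drug controls, capped at 1.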

S. aureus Newman = tested on: S. aureus Newman
Method in brief: as §1

S. pneumoniae D39V = tested on: S. pneumoniae D39V
Method in brief: as §1

[1] = first compound 0.0156 µg/mL, partner 4 µg/mL
[2] = first compound 0.0156 µg/mL, partner 8 µg/mL
[3] = first compound 0.0156 µg/mL, partner 16 µg/mL
[4] = first compound 0.0156 µg/mL, partner 32 µg/mL, one replicate
[5] = first compound 0.0156 µg/mL, partner 64 µg/mL, one replicate
[6] = first compound 0.0312 µg/mL, partner 4 µg/mL
[7] = first compound 0.0312 µg/mL, partner 8 µg/mL
[8] = first compound 0.0312 µg/mL, partner 16 µg/mL
[9] = first compound 0.0312 µg/mL, partner 32 µg/mL, one replicate
[10] = first compound 0.0312 µg/mL, partner 64 µg/mL, one replicate
[11] = first compound 0.0625 µg/mL, partner 4 µg/mL
[12] = first compound 0.0625 µg/mL, partner 8 µg/mL
[13] = first compound 0.0625 µg/mL, partner 16 µg/mL
[14] = first compound 0.0625 µg/mL, partner 32 µg/mL, one replicate
[15] = first compound 0.0625 µg/mL, partner 64 µg/mL, one replicate

CO[C@@]12[C@H](COC(N)=O)C3=C(C(=O)C(C)=C(N)C3=O)N1C[C@@H]1N[C@@H]12 [Mitomycin C] + CN[C@@H]1[C@H](O)[C@H](NC)[C@H]2O[C@@]3(O)C(=O)C[C@@H](C)O[C@H]3O[C@@H]2[C@H]1O [Spectinomycin]
fitness (S. aureus DSM 20231; [1]): 0.726
fitness (S. aureus DSM 20231; [2]): 0.705
fitness (S. aureus DSM 20231; [3]): 0.687
fitness (S. aureus DSM 20231; [4]): 0.614
fitness (S. aureus DSM 20231; [5]): 0.0362
fitness (S. aureus DSM 20231; [6]): 0.729
fitness (S. aureus DSM 20231; [7]): 0.733
fitness (S. aureus DSM 20231; [8]): 0.667
fitness (S. aureus DSM 20231; [9]): 0.475
fitness (S. aureus DSM 20231; [10]): 0.0235
fitness (S. aureus DSM 20231; [11]): 0.67
fitness (S. aureus DSM 20231; [12]): 0.62
fitness (S. aureus DSM 20231; [13]): 0.57
fitness (S. aureus DSM 20231; [14]): 0.258
fitness (S. aureus DSM 20231; [15]): 0.0021
fitness (S. aureus Newman; [1]): 0.653
fitness (S. aureus Newman; [2]): 0.662
fitness (S. aureus Newman; [3]): 0.603
fitness (S. aureus Newman; [4]): 0.294
fitness (S. aureus Newman; [5]): 0.017
fitness (S. aureus Newman; [6]): 0.656
fitness (S. aureus Newman; [7]): 0.684
fitness (S. aureus Newman; [8]): 0.541
fitness (S. aureus Newman; [9]): 0.158
fitness (S. aureus Newman; [10]): 0.0135
fitness (S. aureus Newman; [11]): 0.496
fitness (S. aureus Newman; [12]): 0.432
fitness (S. aureus Newman; [13]): 0.33
fitness (S. aureus Newman; [14]): 0.034
fitness (S. aureus Newman; [15]): 0
fitness (S. pneumoniae D39V; first compound 0.001075 µg/mL, partner 4 µg/mL): 0.899
fitness (S. pneumoniae D39V; first compound 0.001075 µg/mL, partner 8 µg/mL): 0.916
fitness (S. pneumoniae D39V; first compound 0.001075 µg/mL, partner 16 µg/mL): 0.839
fitness (S. pneumoniae D39V; first compound 0.002 µg/mL, partner 4 µg/mL, one replicate): 0.903
fitness (S. pneumoniae D39V; first compound 0.002 µg/mL, partner 8 µg/mL, one replicate): 0.812
fitness (S. pneumoniae D39V; first compound 0.00215 µg/mL, partner 4 µg/mL): 0.814
fitness (S. pneumoniae D39V; first compound 0.00215 µg/mL, partner 8 µg/mL): 0.824
fitness (S. pneumoniae D39V; first compound 0.00215 µg/mL, partner 16 µg/mL): 0.784
fitness (S. pneumoniae D39V; first compound 0.004 µg/mL, partner 4 µg/mL, one replicate): 0.851
fitness (S. pneumoniae D39V; first compound 0.004 µg/mL, partner 8 µg/mL, one replicate): 0.77
fitness (S. pneumoniae D39V; first compound 0.0043 µg/mL, partner 4 µg/mL): 0.746
fitness (S. pneumoniae D39V; first compound 0.0043 µg/mL, partner 8 µg/mL): 0.647
fitness (S. pneumoniae D39V; first compound 0.0043 µg/mL, partner 16 µg/mL): 0.628
fitness (S. pneumoniae D39V; first compound 0.008 µg/mL, partner 4 µg/mL, one replicate): 0.638
fitness (S. pneumoniae D39V; first compound 0.008 µg/mL, partner 8 µg/mL, one replicate): 0.562
